Results: patent US9409915B2, “Substituted aza-bicyclic imidazole derivatives useful as TRPM8 receptor modulators” (Janssen Pharmaceutica NV, priority 2010, dated 2016)
Structures can show the parent of a compound that is named as a salt.

Target: canine TRPM8 (Canis lupus familiaris, UniProt Q1A7N1)
Test: In vitro canine TRPM8 functional assay (Ca2+-sensitive fluorescent dye, icilin activation)
Format: cell-based
Conditions: HEK293 cells stably expressing canine TRPM8, icilin-induced Ca2+ response; for IC50: eight-point concentration-response
Procedure: The functional activity of representative compounds of the formula (I) of the present invention was quantified by measuring changes in intracellular calcium concentration using a Ca^2+-sensitive fluorescent dye. The changes in fluorescent signal were monitored by a fluorescence plate reader, either a FLIPR™ (Molecular Devices) or FDSS (Hamamatsu).
HEK293 cells stably expressing canine TRPM8 were routinely grown as monolayers in Dulbecco's minimum essential medium supplemented with 10% FBS, 2 mM L-glutamine, 100 units/mL penicillin, 100 ug/mL streptomycin and 400 μg/mL G418. Cells were maintained in 5% CO2 at 37° C. At 24 hr prior to assay, cells were seeded in black wall, clear-base poly-D-lysine coated 384-well plates (BD Biosciences, NJ, USA) at a density of 5,000 cells per well in culture medium and grown overnight in 5% CO2 at 37° C. On assay day, growth media was removed, and cells were loaded with Calcium 3 Dye (Molecular Devices) for 35 min at 37° C., under 5% CO2 and then incubated for 25 min at room temperature and atmosphere. Subsequently, cells were tested for agonist-induced increases in intracellular Ca^2+ levels using FLIPR™ or FDSS. Cells were treated with compounds of the formula (I) at varying concentrations and intracellular Ca^2+ was measured for 5 min prior to the addition of icilin to each well to achieve a final concentration that produces an approximately 80% maximal response.
Maximal fluorescence intensity (FI) achieved upon addition of icilin was exported from the FLIPR™ or FDSS software and further analyzed using GraphPad Prism 3.02 (Graph Pad Software Inc., CA, U.S.A.). Basal FI was subtracted prior to normalizing data to percent of maximal response. Curves were generated using the average of quadruplicate wells for each data point using nonlinear regression of either sigmoidal dose response or sigmoidal dose response (variable slope). Finally, the EC50 and IC50 values were calculated with the best-fit curve determined by GraphPad Prism

Chain of canine TRPM8 (Q1A7N1 1-1104): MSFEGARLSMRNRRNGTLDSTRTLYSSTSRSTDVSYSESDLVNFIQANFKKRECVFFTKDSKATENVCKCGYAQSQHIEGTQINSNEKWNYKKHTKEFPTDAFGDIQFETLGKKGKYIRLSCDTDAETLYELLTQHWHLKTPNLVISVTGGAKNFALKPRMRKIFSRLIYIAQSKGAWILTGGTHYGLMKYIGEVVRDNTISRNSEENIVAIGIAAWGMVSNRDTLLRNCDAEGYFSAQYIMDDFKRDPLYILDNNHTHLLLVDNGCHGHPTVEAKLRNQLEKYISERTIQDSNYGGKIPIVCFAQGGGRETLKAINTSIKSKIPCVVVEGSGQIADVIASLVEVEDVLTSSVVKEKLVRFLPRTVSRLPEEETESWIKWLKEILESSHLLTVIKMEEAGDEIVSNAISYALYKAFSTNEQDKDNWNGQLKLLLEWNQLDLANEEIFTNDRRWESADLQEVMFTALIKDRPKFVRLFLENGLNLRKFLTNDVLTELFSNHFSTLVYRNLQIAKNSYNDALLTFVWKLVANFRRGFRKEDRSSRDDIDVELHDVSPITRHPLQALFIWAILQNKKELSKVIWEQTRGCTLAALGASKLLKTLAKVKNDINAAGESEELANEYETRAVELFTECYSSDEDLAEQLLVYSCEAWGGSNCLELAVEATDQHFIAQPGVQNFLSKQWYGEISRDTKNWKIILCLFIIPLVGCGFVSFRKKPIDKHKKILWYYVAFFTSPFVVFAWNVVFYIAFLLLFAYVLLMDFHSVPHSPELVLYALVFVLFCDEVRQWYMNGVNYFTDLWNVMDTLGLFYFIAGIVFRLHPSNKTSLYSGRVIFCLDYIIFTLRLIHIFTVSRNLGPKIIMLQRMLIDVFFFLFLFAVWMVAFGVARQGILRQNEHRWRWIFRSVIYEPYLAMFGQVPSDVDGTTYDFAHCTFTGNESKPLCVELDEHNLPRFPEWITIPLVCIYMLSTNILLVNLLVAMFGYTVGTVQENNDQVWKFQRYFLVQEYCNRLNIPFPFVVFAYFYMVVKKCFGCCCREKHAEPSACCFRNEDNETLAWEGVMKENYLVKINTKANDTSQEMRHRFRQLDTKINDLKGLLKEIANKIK

Structure (SMILES) | inhibition at 0.2 µM (0.2 μM compound) [%] | IC50 [µM] | % Inh @ 0.2 μM (0.2 μM compound, hydrochloride) [%] | inhibition at 0.2 µM (HEK293, 0.2 μM compound) [%]
Cn1nc(C(C)(C)C)c(Cl)c1-c1nc2cc(-c3ccccc3C(F)(F)F)ncc2[nH]1 [Compound 46, 2-(5-tert-Butyl-4-chloro-2-methyl-2H-pyrazol-3-yl)-6-(2-trifluoromethyl-phenyl)-3H-imidazo[4,5-c]pyridine hydrochloride] | 99 | 0.019 |  | 
Cn1nc(C(C)(C)C)c(C#N)c1-c1nc2cc(-c3ccccc3)ncc2[nH]1 [Compound 47, 3-tert-Butyl-1-methyl-5-(6-phenyl-3H-imidazo[4,5-c]pyridin-2-yl)-1H-pyrazole-4-carbonitrile hydrochloride] | 56 |  |  | 
Cl.Cn1nc(C(C)(C)C)c(Cl)c1-c1nc2cc(-c3ccccc3F)ncc2[nH]1 [Compound 48, 2-(5-tert-Butyl-4-chloro-2-methyl-2H-pyrazol-3-yl)-6-(2-fluoro-phenyl)-3H-imidazo[4,5-c]pyridine hydrochloride] |  |  | 59 | 
Cn1nc(C(C)(C)C)c(Cl)c1-c1nc2cc(-c3ccccc3C(F)(F)F)nc(OCCN3CCOCC3)c2[nH]1 [Compound 49, 2-(5-tert-Butyl-4-chloro-2-methyl-2H-pyrazol-3-yl)-4-(2-morpholin-4-yl-ethoxy)-6-(2-trifluoromethyl-phenyl)-3H-imidazo[4,5-c]pyridine] | 100 | 0.0064 |  | 
CN1CCN(CCOc2nc(-c3ccccc3C(F)(F)F)cc3nc(-c4c(Cl)c(C(C)(C)C)nn4C)[nH]c23)CC1 [Compound 50, 2-(5-tert-Butyl-4-chloro-2-methyl-2H-pyrazol-3-yl)-4-[2-(4-methyl-piperazin-1-yl)-ethoxy]-6-(2-trifluoromethyl-phenyl)-3H-imidazo[4,5-c]pyridine] | 91 | 0.056 |  | 
Cn1nc(C(C)(C)C)c(Cl)c1-c1nc2cc(-c3ccccc3Cl)nc(OCCN3CCCC3)c2[nH]1 [Compound 51, 2-(5-tert-Butyl-4-chloro-2-methyl-2H-pyrazol-3-yl)-6-(2-chloro-phenyl)-4-(2-pyrrolidin-1-yl-ethoxy)-3H-imidazo[4,5-c]pyridine] | 88 | 0.072 |  | 
Cn1nc(C(C)(C)C)c(Cl)c1-c1nc2cc(-c3ccccc3C(F)(F)F)nc(OCCN3CCCC3)c2[nH]1 [Compound 52, 2-(5-tert-Butyl-4-chloro-2-methyl-2H-pyrazol-3-yl)-4-(2-pyrrolidin-1-yl-ethoxy)-6-(2-trifluoromethyl-phenyl)-3H-imidazo[4,5-c]pyridine] |  | 0.079 |  | 80
CN(C)CCOc1nc(-c2ccccc2C(F)(F)F)cc2nc(-c3c(Cl)c(C(C)(C)C)nn3C)[nH]c12 [Compound 53, {2-[2-(5-tert-Butyl-4-chloro-2-methyl-2H-pyrazol-3-yl)-6-(2-trifluoromethyl-phenyl)-3H-imidazo[4,5-c]pyridin-4-yloxy]-ethyl}-dimethyl-amine] | 99 | 0.027 |  | 
Cn1nc(C(C)(C)C)c(Cl)c1-c1nc2cc(-c3ccccc3Cl)nc(OCCN3CCOCC3)c2[nH]1 [Compound 54, 2-(5-tert-Butyl-4-chloro-2-methyl-2H-pyrazol-3-yl)-6-(2-chloro-phenyl)-4-(2-morpholin-4-yl-ethoxy)-3H-imidazo[4,5-c]pyridine] | 99 | 0.0042 |  | 
CN1CCN(CCOc2nc(-c3ccccc3Cl)cc3nc(-c4c(Cl)c(C(C)(C)C)nn4C)[nH]c23)CC1 [Compound 55, 2-(5-tert-Butyl-4-chloro-2-methyl-2H-pyrazol-3-yl)-6-(2-chloro-phenyl)-4-[2-(4-methyl-piperazin-1-yl)-ethoxy]-3H-imidazo[4,5-c]pyridine] |  | 0.054 |  | 95
CN(C)CCOc1nc(-c2ccccc2Cl)cc2nc(-c3c(Cl)c(C(C)(C)C)nn3C)[nH]c12 [Compound 56, {2-[2-(5-tert-Butyl-4-chloro-2-methyl-2H-pyrazol-3-yl)-6-(2-chloro-phenyl)-3H-imidazo[4,5-c]pyridin-4-yloxy]-ethyl}-dimethyl-amine] | 99 | 0.024 |  | 
Cn1nc(C(C)(C)C)c(Cl)c1-c1nc2cc(-c3ccccc3C(F)(F)F)nc(OCCO)c2[nH]1 [Compound 57, 2-[2-(5-tert-Butyl-4-chloro-2-methyl-2H-pyrazol-3-yl)-6-(2-trifluoromethyl-phenyl)-3H-imidazo[4,5-c]pyridin-4-yloxy]-ethanol] | 101 | 0.0016 |  | 
Cn1nc(C(C)(C)C)c(Cl)c1-c1nc2cc(-c3ccccc3Cl)nc(OCCO)c2[nH]1 [Compound 58, 2-[2-(5-tert-Butyl-4-chloro-2-methyl-2H-pyrazol-3-yl)-6-(2-chloro-phenyl)-3H-imidazo[4,5-c]pyridin-4-yloxy]-ethanol] | 101 | 0.002 |  | 
COc1cc(-c2ccccc2C(F)(F)F)nc2nc(-c3onc(C(C)(C)C)c3C#N)[nH]c12 [Compound 70, 3-tert-Butyl-5-[7-methoxy-5-(2-trifluoromethyl-phenyl)-1H-imidazo[4,5-b]pyridin-2-yl]-isoxazole-4-carbonitrile methanesulfonic acid salt] | 36 |  |  | 
Cn1nc(C(C)(C)C)c(Cl)c1-c1nc2cc(-c3ccccc3C(F)(F)F)nc(Cl)c2[nH]1 [Compound 71, 2-(5-tert-Butyl-4-chloro-2-methyl-2H-pyrazol-3-yl)-4-chloro-6-(2-trifluoromethyl-phenyl)-3H-imidazo[4,5-c]pyridine Hydrochloride] | 100 | 0.0088 |  | 
Cn1nc2c(c1-c1nc3c(Cl)nc(-c4ccccc4C(F)(F)F)cc3[nH]1)CCC21CCCCC1 [Compound 72, 3′-{4-Chloro-6-[2-(trifluoromethyl)phenyl]-1H-imidazo[4,5-c]pyridin-2-yl}-2′-methyl-4′,5′-dihydro-2′H-spiro[cyclohexane-1,6′-cyclopenta[c]pyrazole] hydrochloride] | 95 | 0.063 |  | 
CC(C)(C)c1cc(-c2nc3cc(-c4ccccc4C(F)(F)F)nc(Cl)c3[nH]2)on1 [Compound 73, 2-(3-tert-Butyl-isoxazol-5-yl)-4-chloro-6-(2-trifluoromethyl-phenyl)-3H-imidazo[4,5-c]pyridine hydrochloride] | 100 | 0.028 |  | 
Cn1nc(C(C)(C)C)cc1-c1nc2cc(-c3ccccc3C(F)(F)F)nc(Cl)c2[nH]1 [Compound 74, 2-(5-tert-Butyl-2-methyl-2H-pyrazol-3-yl)-4-chloro-6-(2-trifluoromethyl-phenyl)-3H-imidazo[4,5-c]pyridine hydrochloride] | 93 | 0.096 |  | 
Cn1nc(C(C)(C)C)c(C#N)c1-c1nc2cc(-c3ccccc3C(F)(F)F)nc(Cl)c2[nH]1 [Compound 75, 3-tert-Butyl-5-[4-chloro-6-(2-trifluoromethyl-phenyl)-3H-imidazo[4,5-c]pyridin-2-yl]-1-methyl-1H-pyrazole-4-carbonitrile Hydrochloride] | 100 | 0.024 |  | 
COCCOc1cc(-c2ccccc2C(F)(F)F)nc2nc(-c3c(Cl)c(C(C)(C)C)nn3C)[nH]c12 [Compound 76, 2-(5-tert-Butyl-4-chloro-2-methyl-2H-pyrazol-3-yl)-7-(2-methoxy-ethoxy)-5-(2-trifluoromethyl-phenyl)-1H-imidazo[4,5-b]pyridine methanesulfonic acid salt] |  | 0.0058 |  | 98
